Assay results from PMC10899606, “Thwarting resistance: MgrA inhibition with methylophiopogonanone a unveils a new battlefront against S. aureus” (NPJ Biofilms and Microbiomes, 2024).

Columns and labels:
[1] = target: T1, MgrA (Staphylococcus aureus, UniProt P0C1S0); assay: thermal shift assay (Sypro Orange); type: binding; details: Tm is lowered by the compound; MgrA to Mo-A 1:10 molar ratio, 10 mM Tris, 150 mM NaCl, pH 7.5
T1 construct: homodimer in nature

[2] = target: T1, MgrA; assay: fluorescence anisotropy, inhibition of MgrA binding to DNA probe; type: biochemical
[3] = target: T1, MgrA; assay: intrinsic fluorescence quenching (ex […] nm), Stern-Volmer, linear regression; type: binding; details: PBS, MgrA 2 nM; static quenching

T1 sequence (P0C1S0 2-147): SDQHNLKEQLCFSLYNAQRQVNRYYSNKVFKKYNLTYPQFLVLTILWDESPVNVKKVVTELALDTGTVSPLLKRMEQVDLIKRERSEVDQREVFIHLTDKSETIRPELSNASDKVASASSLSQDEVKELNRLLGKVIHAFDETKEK

Cc1c(O)c(C)c2c(c1O)C(=O)[C@H](Cc1ccc3c(c1)OCO3)CO2 [methylophiopogonanone A]
∆Tm (decrease) [1]: > 3 °C
IC50 [2]: 95.9 µM
KA [3]: 62500 L/mol
